Reference: patent EP3722296B1, “DIHYDRONAPHTHYRIDINES AND RELATED COMPOUNDS USEFUL AS KINASE INHIBITORS FOR THE TREATMENT OF PROLIFERATIVE DISEASES” (Deciphera Pharmaceuticals, LLC, priority 2012, dated 2013)

How the values were obtained:
[1] = tested on: Phospho-KIT (Tyr719); experiment: GIST430 KIT Western Blot; assay type: cell-based; conditions: GIST430 cells, 4 hours, serum-free medium; read-out: pKIT suppression by western blot analysi GIST430
Protocol: (§1) GIST48, GIST430, and GIST882 cells were obtained from J. Fletcher (Brigham and Women's Hospital, Boston, MA). GIST T1 cells were obtained from B. Rubin (Cleveland Clinic, Cleveland, OH) and Professor Takahiro Taguchi (Kochi Medical School, Nankoku, Kochi, Japan). […] GIST430 cells were grown in Ham's F10 medium supplemented with 15% characterized fetal bovine serum (Invitrogen, Carlsbad, CA), 30 mg/L bovine pituitary extract (BD Biosciences, San Jose, CA), 0.5% Mito+ serum extender (BD Biosciences, San Jose, CA), 1 unit/mL penicillin G, 1 µg/ml streptomycin, and 0.29 mg/mL L-glutamine at 37 °C, 5%CO2, 95% humidity. GIST T1 cells were grown in DMEM medium supplemented with 10% characterized fetal bovine serum (Invitrogen, Carlsbad, CA), 1 unit/mL penicillin G, 1 µg/ml streptomycin, and 0.29 mg/mL L-glutamine at 37 °C, 5% CO2, and 95% humidity.
(§2) One hundred fifty thousand cells were added per well in a 24-well tissue-culture treated plate. […] Medium was aspirated, cells were washed with PBS, and serum-free Ham's F10 medium was added. […] Cells were washed with PBS, then lysed. Cell lysates were separated by SDS-PAGE and transferred to PVDF. Phospho-KIT (Tyr719) was detected using an antibody from Cell Signaling Technology (Beverly, MA), ECL Plus detection reagent (GE Healthcare, Piscataway, NJ) and a Molecular Devices Storm 840 phosphorimager in fluorescence mode. Blots were stripped and probed for total KIT using an antibody from Santa Cruz Biotech (Santa Cruz, CA). IC50 values were calculated using Prism software (Graphpad, San Diego, CA).

[2] = tested on: Phospho-KIT (Tyr719); experiment: GIST48 KIT Western Blot; assay type: cell-based; conditions: GIST48 cells, 4 hours, serum-free medium; read-out: pKIT suppression by western blot analysi GIST48
Protocol: as §1
as §2, with “Two” for “One”, “RPMI1640” for “Ham's F10”

[3] = tested on: GIST T1 cells; experiment: GIST T1 Cell Proliferation Assay; assay type: cell-based; conditions: Homo sapiens, GISTT1, 72 h, 68 hours + 4 hours resazurin
Protocol: GIST48, GIST430, and GIST882 cells were obtained from J. Fletcher (Brigham and Women's Hospital, Boston, MA). GIST T1 cells were obtained from B. Rubin (Cleveland Clinic, Cleveland, OH) and Professor Takahiro Taguchi (Kochi Medical School, Nankoku, Kochi, Japan). Briefly, GIST48 and GIST 882 cells were grown in RPMI 1640 medium supplemented with 15% characterized fetal bovine serum (Invitrogen, Carlsbad, CA), 1 unit/mL penicillin G, 1 µg/ml streptomycin, and 0.29 mg/mL L-glutamine at 37 °C, 5% CO2, and 95% humidity. GIST430 cells were grown in Ham's F10 medium supplemented with 15% characterized fetal bovine serum (Invitrogen, Carlsbad, CA), 30 mg/L bovine pituitary extract (BD Biosciences, San Jose, CA), 0.5% Mito+ serum extender (BD Biosciences, San Jose, CA), 1 unit/mL penicillin G, 1 µg/ml streptomycin, and 0.29 mg/mL L-glutamine at 37 °C, 5%CO2, 95% humidity. GIST T1 cells were grown in DMEM medium supplemented with 10% characterized fetal bovine serum (Invitrogen, Carlsbad, CA), 1 unit/mL penicillin G, 1 µg/ml streptomycin, and 0.29 mg/mL L-glutamine at 37 °C, 5% CO2, and 95% humidity.
A serial dilution of test compound was dispensed into a 384-well black clear bottom plate (Corning, Corning, NY). One thousand two-hundred fifty cells were added per well in 50 µL complete growth medium. Plates were incubated for 68 hours at 37 °C, 5% CO2, 95% humidity. At the end of the incubation period 10 µL of a 440 µM solution of resazurin (Sigma, St. Louis, MO) in PBS was added to each well and incubated for an additional 4 hours at 37 °C, 5% CO2, 95% humidity. Plates were read on a Synergy2 reader (Biotek, Winooski, VT) using an excitation of 540 nm and an emission of 600 nm.

[4] = target: T1, c-KIT V654A kinase (Homo sapiens, UniProt P10721, V654A); experiment: c-KIT V654A Kinase Assay; assay type: biochemical; conditions: enzymatic assay, ATP 200 µM
T1 construct: residues T544-V976 with N-terminal GST fusion; purchased deCODE Biostructures
T1 sequence (P10721 544-976 V654A): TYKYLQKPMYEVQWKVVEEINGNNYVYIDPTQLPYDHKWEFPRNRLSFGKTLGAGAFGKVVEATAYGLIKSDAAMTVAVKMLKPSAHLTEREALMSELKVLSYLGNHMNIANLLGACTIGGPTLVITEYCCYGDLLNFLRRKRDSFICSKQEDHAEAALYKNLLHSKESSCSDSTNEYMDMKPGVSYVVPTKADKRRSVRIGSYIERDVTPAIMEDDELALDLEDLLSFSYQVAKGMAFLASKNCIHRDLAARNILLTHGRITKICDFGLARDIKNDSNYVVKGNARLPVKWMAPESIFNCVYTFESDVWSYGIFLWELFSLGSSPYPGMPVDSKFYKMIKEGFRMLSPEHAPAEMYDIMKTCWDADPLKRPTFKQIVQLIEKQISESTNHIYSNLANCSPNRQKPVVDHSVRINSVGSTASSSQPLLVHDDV
How it was run: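 Kinase activity tracked by coupled NADH consumption, monitored continuously at 340 nm over 6 h at 30 °C after serially diluted compound was mixed in to start inhibition. Enzyme used was a GST-fused, N-terminally tagged cKIT T544–V976 construct with a TEV cleavage site.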

[5] = target: T2, c-KIT D816V kinase (Homo sapiens, UniProt P10721, D816V); experiment: c-KIT D816V kinase Assay; assay type: biochemical; conditions: enzymatic assay, ATP 200 uM
T2 construct: residues T544-V976 with N-terminal GST fusion; purchased deCODE Biostructures
T2 sequence (P10721 544-976 D816V): as the sequence (P10721 544-976 V654A) above, with A111V, D273V counted along it
How it was run: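 Coupled assay in which NADH oxidation was tracked as decreasing absorbance at 340 nm, continuously for 5 hours at 30 °C after adding serially diluted compound. Enzyme: cKit residues T544-V976 with N-terminal tag, GST fusion and TEV cleavage site.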

[6] = target: T3, c-KIT T670I kinase (Homo sapiens, UniProt P10721, T670I); experiment: c-KIT T670I kinase assay; assay type: biochemical; conditions: enzymatic assay
T3 construct: The construct contains residues T544-V976 of cKit; GST (N); TEV cleavage site (internal); purchased deCODE Biostructures
T3 sequence (P10721 544-976 T670I): as the sequence (P10721 544-976 V654A) above, with A111V, T127I counted along it
How it was run: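 Enzyme: GST-fused, N-terminally tagged cKit bearing T670I, with TEV cleavage site. Reaction started by mixing compound dilutions with reaction mix; activity read continuously over 5 h at 30 °C as loss of 340 nm absorbance from NADH consumption.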

[7] = target: c-KIT kinase (Homo sapiens, UniProt P10721); experiment: c-KIT kinase Assay; assay type: biochemical; set-up: cKIT residues T544-V976; GST (N); TEV cleavage site (internal); purchased deCODE Biostructures; conditions: enzymatic assay, ATP 200 µM; read-out: KIT (wt) IC50
c-KIT kinase, sequence (P10721 544-976): as the sequence (P10721 544-976 V654A) above, with A111V counted along it
How it was run: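 This continuous spectrophotometric assay tracked c-KIT kinase turnover through NADH consumption at 340 nm, recorded for 2 hours at 30 °C. The enzyme construct from deCODE Biostructures carried an N-terminal tag, a GST-fusion sequence and a TEV cleavage site. Percent inhibition came from reaction rates over 0 to 1 h relative to a no-compound control, and IC50 values were derived with GraphPad Prism.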

[8] = target: T4, c-KIT D816H kinase (Homo sapiens, UniProt P10721, D816H); experiment: c-KIT D816H Kinase Assay; assay type: biochemical; conditions: enzymatic assay, ATP 200 µM
T4 construct: The construct contains residues T544-V976 of cKit; GST (N); TEV cleavage site (internal); purchased deCODE Biostructures
T4 sequence (P10721 544-976 D816H): as the sequence (P10721 544-976 V654A) above, with A111V, D273H counted along it
How it was run: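 Mutant cKit enzyme, expressed as a GST-fusion construct carrying an N-terminal tag and TEV site, was mixed with serially diluted compound to start reactions. Activity tracked via NADH consumption, read continuously at 340 nm over 6 hours at 30 °C.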

For `CCn1c(=O)c(-c2cc(NC(=O)Nc3ccccc3)c(F)cc2F)cc2cnc(NC(C)=O)cc21` [Example 66, 1-(5-(7-acetamido-1-ethyl-2-oxo-1,2-dihydro-1,6-naphthyridin-3-yl)-2,4-difluorophenyl)-3-phenylurea], the IC50 [1] was 10 to 100 nM, the IC50 [2] was 100 to 1000 nM and the IC50 [3] was less than 10 nM.
`CCn1c(=O)c(-c2cc(NC(=O)Nc3cccc(Cl)c3)c(F)cc2F)cc2cnc(NC)cc21` [Example 17, 1-(3-chlorophenyl)-3-(5-(1-ethyl-7-(methylamino)-2-oxo-1,2-dihydro-1,6-naphthyridin-3-yl)-2,4-difluorophenyl)urea] was tested, and the IC50 [1] was 10 to 100 nM and the IC50 [2] was 10 to 100 nM.
For `CCn1c(=O)c(-c2cc(NC(=O)Nc3cc(F)cc(F)c3)c(F)cc2F)cc2cnc(NC)cc21` [Example 63, 1-(3,5-difluorophenyl)-3-(5-(1-ethyl-7-(methylamino)-2-oxo-1,2-dihydro-1,6-naphthyridin-3-yl)-2,4-difluorophenyl)urea], the IC50 [4] was less than 10 nM, the IC50 [5] was 10 to 100 nM and the IC50 [6] was 10 to 100 nM. For the same molecule, the IC50 [1] was 10 to 100 nM, the IC50 [2] was 100 to 1000 nM and the IC50 [3] was less than 10 nM. For the same molecule, the IC50 [7] was less than 10 nM.
`CCn1c(=O)c(-c2cc(NC(=O)Nc3ccccc3)c(F)cc2Br)cc2cnc(NC(C)=O)cc21` [Example 53, 1-(5-(7-acetamido-1-ethyl-2-oxo-1,2-dihydro-1,6-naphthyridin-3-yl)-4-bromo-2-fluorophenyl)-3-phenylurea] showed an IC50 [1] of less than 10 nM, an IC50 [2] of 100 to 1000 nM and an IC50 [3] of less than 10 nM.
In the case of `CCn1c(=O)c(-c2cc(NC(=O)Nc3cc(F)cc(CN4CCN(C)CC4)c3)c(F)cc2Cl)cc2cnc(NC)cc21` [Example 88, 1-(4-chloro-5-(1-ethyl-7-(methylamino)-2-oxo-1,2-dihydro-1,6-naphthyridin-3-yl)-2-fluorophenyl)-3-(3-fluoro-5-((4-methylpiperazin-1-yl)methyl)phenyl)urea], the IC50 [1] is reported as 10 to 100 nM, the IC50 [2] is reported as 10 to 100 nM and the IC50 [3] is reported as less than 10 nM.
`CCn1c(=O)c(-c2cc(NC(=O)Nc3ccccc3)c(F)cc2Cl)cc2cnc(N)cc21` [Example 21, 1-(5-(7-amino-1-ethyl-2-oxo-1,2-dihydro-1,6-naphthyridin-3-yl)-4-chloro-2-fluorophenyl)-3-phenylurea] showed an IC50 [1] of less than 10 nM, an IC50 [2] of 10 to 100 nM and an IC50 [3] of less than 10 nM.
For `CNc1cc2c(cn1)cc(-c1cc(NC(=O)Nc3cccc(F)c3)c(F)cc1C)c(=O)n2C(C)C` [Example 41, 1-(2-fluoro-5-(1-isopropyl-7-(methylamino)-2-oxo-1,2-dihydro-1,6-naphthyridin-3-yl)-4-methylphenyl)-3-(3-fluorophenyl)urea], the IC50 [4] was 10 to 100 nM, the IC50 [8] was less than 10 nM and the IC50 [5] was 10 to 100 nM. It also gave an IC50 [6] greater than 1000 nM, an IC50 [1] of 10 to 100 nM and an IC50 [2] of 100 to 1000 nM. For the same molecule, the IC50 [7] was less than 10 nM.
With `CCn1c(=O)c(-c2cc(NC(=O)Nc3cc(F)cc(F)c3)c(F)cc2C)cc2cnc(NC(=O)N(C)C)cc21` [Example 108, 3-(3-(5-(3-(3,5-difluorophenyl)ureido)-4-fluoro-2-methylphenyl)-1-ethyl-2-oxo-1,2-dihydro-1,6-naphthyridin-7-yl)-1,1-dimethylurea] the IC50 [4] was 100 to 1000 nM, the IC50 [8] was 10 to 100 nM and the IC50 [5] was 10 to 100 nM. The IC50 [6] was 10 to 100 nM, the IC50 [1] was 10 to 100 nM and the IC50 [2] was 100 to 1000 nM. It also gave an IC50 [7] of 10 to 100 nM.
Work on `CCn1c(=O)c(-c2cc(NC(=O)Nc3ccccc3)c(F)cc2Cl)cc2cnc(NCCCN(C)C)cc21` [Example 30, 1-(4-chloro-5-(7-(3-(dimethylamino)propylamino)-1-ethyl-2-oxo-1,2-dihydro-1,6-naphthyridin-3-yl)-2-fluorophenyl)-3-phenylurea] yielded an IC50 [1] of 10 to 100 nM and an IC50 [2] of 100 to 1000 nM.
In the case of `CCn1c(=O)c(-c2cc(NC(=O)Nc3cc(F)ccc3F)c(F)cc2Cl)cc2cnc(NC)cc21` [Example 68, 1-(4-chloro-5-(1-ethyl-7-(methylamino)-2-oxo-1,2-dihydro-1,6-naphthyridin-3-yl)-2-fluorophenyl)-3-(2,5-difluorophenyl)urea], the IC50 [4] is reported as 10 to 100 nM, the IC50 [5] is reported as 10 to 100 nM and the IC50 [6] is reported as 10 to 100 nM. The IC50 [1] was 10 to 100 nM, the IC50 [2] was 100 to 1000 nM and the IC50 [3] was less than 10 nM. For the same molecule, the IC50 [7] was less than 10 nM.
With `CCn1c(=O)c(-c2cc(NC(=O)Nc3cccc(CN4CCN(C)CC4)c3)c(F)cc2Cl)cc2cnc(NC)cc21` [Example 79, 1-(4-chloro-5-(1-ethyl-7-(methylamino)-2-oxo-1,2-dihydro-1,6-naphthyridin-3-yl)-2-fluorophenyl)-3-(3-((4-methylpiperazin-1-yl)methyl)phenyl)urea] the IC50 [1] was 10 to 100 nM, the IC50 [2] was 10 to 100 nM and the IC50 [3] was less than 10 nM.
